# Data published in publication PMC3351444, “Molecular Evolution of a Peptide GPCR Ligand Driven by Artificial Neural Networks” (PLoS ONE, 2012).
# Square brackets hold non-standard residues; d marks the D form. Peptide text beside a SMILES is read from it.
# Assays:
# [1] = In vitro peptide stability in human serum (RP-HPLC); conditions: for half-life at 50 µg/mL: human, human serum, 25% (v/v) in RPMI; for t1/2: metabolic stability in human serum
# human CMKLR1 = target: T1, human CMKLR1 (Homo sapiens, UniProt Q99788); assay: Ca2+ mobilization (CellLux imaging) agonist assay in HEK293A cells expressing CMKLR1 and Gα15; assay type: cell-based; conditions: Ca2+ mobilization, CMKLR1, decimal comma; for EC50: NR where no EC50 is given, read-out: EC50
# T1 construct: host or cells: HEK293A (Invitrogen), stably expressing human Gα15
# T1 sequence (Q99788 1-373): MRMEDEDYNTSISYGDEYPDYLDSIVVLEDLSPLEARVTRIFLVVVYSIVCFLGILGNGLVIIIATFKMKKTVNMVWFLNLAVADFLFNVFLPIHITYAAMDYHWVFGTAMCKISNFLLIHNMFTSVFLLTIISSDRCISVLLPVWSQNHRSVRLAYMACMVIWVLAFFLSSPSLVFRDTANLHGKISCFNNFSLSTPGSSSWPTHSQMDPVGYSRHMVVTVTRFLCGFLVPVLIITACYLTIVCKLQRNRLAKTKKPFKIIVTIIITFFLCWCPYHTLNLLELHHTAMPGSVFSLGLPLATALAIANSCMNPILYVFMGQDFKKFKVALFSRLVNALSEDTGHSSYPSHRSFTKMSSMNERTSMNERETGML
# Outline: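 Agonist-evoked Ca2+ rise, read as FLUO4-AM fluorescence by imaging, in HEK293A cells carrying CMKLR1 plus Gα15. Peptides were diluted in C1 solution (pH 7.4) containing 0.1% BSA. Duplicate signals were averaged, corrected for buffer wells and normalized to background, and EC50 was fitted from amplitude versus concentration.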
Compound,half-life at 50 µg/mL [1],max response (human CMKLR1),EC50 (human CMKLR1),t1/2 [1]
CC(C)C[C@H](NC(=O)[C@H](Cc1ccccc1)NC(=O)[C@H](CCC(N)=O)NC(=O)CNC(=O)[C@H]1CCCN1C(=O)[C@@H](CC(C)C)NC(=O)[C@@H](N)Cc1ccc(O)cc1)C(=O)N[C@@H](Cc1ccccc1)C(=O)N[C@@H](CO)C(=O)O [compound 75] (H-Y[dL][dP]GQFLFS-OH; N-terminus assumed),0.817 h,"0,99 DF/F0",5580 nM,–
CC(C)C[C@H](NC(=O)[C@@H](N)Cc1ccc(O)cc1)C(=O)N1CCC[C@H]1C(=O)NCC(=O)N[C@@H](CCC(N)=O)C(=O)N[C@@H](C)C(=O)N[C@H](Cc1ccccc1)C(=O)N[C@@H](Cc1ccccc1)C(=O)N[C@@H](CCCCN)C(=O)O [compound 78] (H-YLPGQA[dF]FK-OH; N-terminus assumed),0.4 h,"1,15 DF/F0",233000 nM,–
CC(C)C[C@H](NC(=O)[C@@H](N)Cc1ccc(O)cc1)C(=O)N1CCC[C@H]1C(=O)NCC(=O)N[C@@H](CCC(N)=O)C(=O)N[C@@H](Cc1ccc(O)cc1)C(=O)N[C@@H](C)C(=O)N[C@@H](Cc1ccccc1)C(=O)N[C@H](Cc1ccccc1)C(=O)O [compound 80] (H-YLPGQYAF[dF]-OH; N-terminus assumed),0.6 h,"1,77 DF/F0",0.21 nM,–
CC(C)C[C@H](NC(=O)[C@H](N)Cc1ccc(O)cc1)C(=O)N1CCC[C@H]1C(=O)NCC(=O)N[C@@H](CCC(N)=O)C(=O)N[C@@H](Cc1ccc(O)cc1)C(=O)N[C@@H](C)C(=O)N[C@@H](Cc1ccccc1)C(=O)N[C@@H](CO)C(=O)O [compound 82] (H-[dY]LPGQYAFS-OH; N-terminus assumed),1.28 h,"1,61 DF/F0",3.62 nM,–
CC(C)C[C@H](NC(=O)[C@H](N)Cc1ccccc1)C(=O)N1CCC[C@H]1C(=O)NCC(=O)N[C@@H](CCC(N)=O)C(=O)N[C@@H](Cc1ccc(O)cc1)C(=O)N[C@@H](C)C(=O)N[C@@H](Cc1ccccc1)C(=O)N[C@H](Cc1ccccc1)C(=O)O [compound 83] (H-[dF]LPGQYAF[dF]-OH; N-terminus assumed),–,"1,82 DF/F0",–,19.28 h
C[C@H](NC(=O)[C@H](Cc1ccc(O)cc1)NC(=O)[C@H](CCC(N)=O)NC(=O)CNC(=O)[C@@H]1CCCN1C(=O)[C@H](CCCNC(=N)N)NC(=O)[C@@H](N)Cc1ccc(O)cc1)C(=O)N[C@@H](Cc1ccccc1)C(=O)N[C@H](CO)C(=O)O [compound 84] (H-YRPGQYAF[dS]-OH; N-terminus assumed),–,"1,84 DF/F0",–,0.35 h
CSCC[C@H](NC(=O)[C@H](N)Cc1ccc(O)cc1)C(=O)N1CCC[C@H]1C(=O)NCC(=O)N[C@@H](CCC(N)=O)C(=O)N[C@@H](Cc1ccc(O)cc1)C(=O)N[C@@H](C)C(=O)N[C@@H](Cc1ccccc1)C(=O)N[C@@H](CO)C(=O)O [compound 85] (H-[dY]MPGQYAFS-OH; N-terminus assumed),1.25 h,"1,78 DF/F0",11.7 nM,–
CC(C)[C@H](NC(=O)[C@@H](N)Cc1ccc(O)cc1)C(=O)N1CCC[C@H]1C(=O)NCC(=O)N[C@@H](CCC(N)=O)C(=O)N[C@@H](Cc1ccc(O)cc1)C(=O)N[C@@H](C)C(=O)N[C@@H](Cc1ccccc1)C(=O)N[C@H](CO)C(=O)O [compound 86] (H-YVPGQYAF[dS]-OH; N-terminus assumed),0.4 h,"1,57 DF/F0",21.8 nM,–
CC(C)C[C@H](NC(=O)[C@@H](N)Cc1ccc(O)cc1)C(=O)N1CCC[C@H]1C(=O)NCC(=O)N[C@@H](CCC(N)=O)C(=O)N[C@@H](Cc1ccc(O)cc1)C(=O)N[C@@H](C)C(=O)N[C@@H](Cc1ccc(O)cc1)C(=O)N[C@H](CO)C(=O)O [compound 87] (H-YLPGQYAY[dS]-OH; N-terminus assumed),0.817 h,"1,62 DF/F0",27.5 nM,–
C[C@H](NC(=O)[C@H](Cc1ccc(O)cc1)NC(=O)[C@H](CCC(N)=O)NC(=O)CNC(=O)[C@@H]1CCCN1C(=O)[C@@H](Cc1ccc(O)cc1)NC(=O)[C@@H](N)Cc1ccc(O)cc1)C(=O)N[C@@H](Cc1ccccc1)C(=O)N[C@H](CO)C(=O)O [compound 88] (H-Y[dY]PGQYAF[dS]-OH; N-terminus assumed),14.8 h,"1,51 DF/F0",35.1 nM,–
CC(C)C[C@H](NC(=O)[C@@H](N)Cc1ccccc1)C(=O)N1CCC[C@H]1C(=O)NCC(=O)N[C@@H](CCC(N)=O)C(=O)N[C@@H](Cc1ccccc1)C(=O)N[C@H](Cc1c[nH]c2ccccc12)C(=O)N[C@@H](Cc1ccccc1)C(=O)N[C@H](CO)C(=O)O [compound 89] (H-FLPGQF[dW]F[dS]-OH; N-terminus assumed),1.22 h,"1,76 DF/F0",49.2 nM,–
CC(C)[C@H](NC(=O)[C@@H](N)Cc1ccc(O)cc1)C(=O)N1CCC[C@H]1C(=O)NCC(=O)N[C@@H](CCC(N)=O)C(=O)N[C@@H](Cc1ccccc1)C(=O)N[C@@H](C)C(=O)N[C@@H](Cc1ccccc1)C(=O)N[C@H](CO)C(=O)O [compound 90] (H-YVPGQFAF[dS]-OH; N-terminus assumed),0.383 h,"1,81 DF/F0",50 nM,–
CC(C)[C@H](NC(=O)[C@H](N)Cc1ccc(O)cc1)C(=O)N1CCC[C@H]1C(=O)NCC(=O)N[C@@H](CCC(N)=O)C(=O)N[C@@H](Cc1ccc(O)cc1)C(=O)N[C@@H](C)C(=O)N[C@@H](Cc1ccccc1)C(=O)N[C@@H](CO)C(=O)O [compound 91] (H-[dY]VPGQYAFS-OH; N-terminus assumed),2.52 h,"1,58 DF/F0",53.6 nM,–
C[C@H](NC(=O)[C@H](Cc1ccc(O)cc1)NC(=O)[C@H](CCC(N)=O)NC(=O)[C@@H](CO)NC(=O)[C@H](Cc1ccccc1)NC(=O)[C@H](C)NC(=O)[C@@H](N)Cc1ccc(O)cc1)C(=O)N[C@@H](Cc1ccccc1)C(=O)N[C@H](CO)C(=O)O [compound 92] (H-YAF[dS]QYAF[dS]-OH; N-terminus assumed),0.867 h,"1,54 DF/F0",60.9 nM,–
C[C@H](NC(=O)[C@@H](N)Cc1ccc(O)cc1)C(=O)N[C@@H](Cc1ccccc1)C(=O)N[C@H](CO)C(=O)N1CCC[C@H]1C(=O)NCC(=O)N[C@@H](CCC(N)=O)C(=O)N[C@@H](Cc1ccccc1)C(=O)N[C@H](CO)C(=O)O [compound 93] (H-YAF[dS]PGQF[dS]-OH; N-terminus assumed),1.35 h,"1,67 DF/F0",64.4 nM,–
C[C@H](NC(=O)[C@H](Cc1ccc(O)cc1)NC(=O)[C@H](CCC(N)=O)NC(=O)CNC(=O)[C@@H]1CCCN1C(=O)[C@H](CCC(=O)O)NC(=O)[C@@H](N)Cc1ccc(O)cc1)C(=O)N[C@@H](Cc1ccccc1)C(=O)N[C@H](CO)C(=O)O [compound 94] (H-YEPGQYAF[dS]-OH; N-terminus assumed),0.783 h,"1,56 DF/F0",76.2 nM,–
CC(C)C[C@H](NC(=O)[C@H](N)Cc1ccccc1)C(=O)N1CCC[C@H]1C(=O)NCC(=O)N[C@@H](CCC(N)=O)C(=O)N[C@@H](Cc1ccc(O)cc1)C(=O)N[C@@H](C)C(=O)N[C@@H](Cc1ccccc1)C(=O)N[C@H](CO)C(=O)O [compound 95] (H-[dF]LPGQYAF[dS]-OH; N-terminus assumed),40.6 h,"1,75 DF/F0",80.6 nM,–
CC(C)C[C@@H](NC(=O)[C@H](Cc1c[nH]cn1)NC(=O)[C@H](N)CO)C(=O)NCC(=O)N[C@@H](CCC(N)=O)C(=O)N[C@@H](Cc1ccc(O)cc1)C(=O)N[C@@H](C)C(=O)N[C@H](CC(=O)O)C(=O)N[C@@H](CO)C(=O)O [compound 96] (H-[dS]H[dL]GQYA[dD]S-OH; N-terminus assumed),54.1 h,"1,63 DF/F0",90.5 nM,–
CC(C)[C@H](N)C(=O)N1CCC[C@H]1C(=O)NCC(=O)N[C@@H](CCC(N)=O)C(=O)N[C@@H](Cc1ccc(O)cc1)C(=O)N[C@@H](C)C(=O)N[C@@H](Cc1ccccc1)C(=O)N[C@H](CO)C(=O)N[C@H](CO)C(=O)O [compound 99] (H-VPGQYAF[dS][dS]-OH; N-terminus assumed),0.717 h,"1,7 DF/F0",129 nM,–
C[C@H](NC(=O)CN)C(=O)N[C@@H](Cc1ccccc1)C(=O)N[C@@H](CCC(N)=O)C(=O)N[C@@H](Cc1ccccc1)C(=O)N[C@H](CO)C(=O)N[C@@H](C)C(=O)N[C@@H](Cc1ccccc1)C(=O)N[C@H](CO)C(=O)O [compound 100] (H-GAFQF[dS]AF[dS]-OH; N-terminus assumed),1.18 h,"1,69 DF/F0",129 nM,–
CC(C)C[C@H](NC(=O)[C@H](N)Cc1ccc(O)cc1)C(=O)N1CCC[C@H]1C(=O)NCC(=O)N[C@@H](CCC(N)=O)C(=O)N[C@@H](Cc1ccc(O)cc1)C(=O)N[C@@H](C)C(=O)N[C@@H](Cc1ccc(O)cc1)C(=O)N[C@@H](CO)C(=O)O [compound 101] (H-[dY]LPGQYAYS-OH; N-terminus assumed),1.35 h,"1,56 DF/F0",140 nM,–
